Where “and” joins values, the source holds several entries; their conditions need not be identical. Equal values may be shown once.
Legend:
[1] = test system: human liver cancer cell Hep3B; assay: MTT survival rate of Hep3B cells, VCP inhibitor and/or M1 virus (Example 2); assay type: cell-based
Description: b) Reaction of MTT (3-(4,5-dimethylthiazol-2-yl)-2,5-diphenyltetrazolium bromide) with succinate dehydrogenase in the cells as follows: 48 hours after culture, 20 μl MTT (5 mg/ml) was added into each well, and was incubated for further 4 hours.
c) Dissolution of formazan particles formed in the cells was accomplished as follows: the supernatant was carefully sucked off, 100 μl/well DMSO was added to dissolve the formed crystals, and was shaken in a microoscillator for 5 minutes. Then, the optical density (OD value) of each well was detected in an enzyme linked detector at a wavelength of 570 nm. The experiments were repeated for 3 times for each group. The survival rate of the cells=OD value of the drug treatment group/OD value of the control group×100%.
Single and double asterisks in FIGS. 2(A) and 2(B) indicate results with one way ANOVA analysis showing a statistical difference with a single asterisk (*) indicating P<0.05 and a double asterisk (**) indicating P<0.01.

[2] = test system: human liver cancer cell Hep3B; assay: Morphological observation by phase contrast microscope (Example 1); assay type: cell-based; details: Eeyarestatin I 5 μM and/or M1 virus MOI=0.001; 48 hours after treatment
Description: b) Cell treatment and morphological observation: The cells in exponential growth phase were selected and added into a DMEM complete culture medium (containing 10% fetal bovine serum, 1% penicillin/streptomycin (Life Technologies)) to prepare a cell suspension. The cells were inoculated into a 24-well culture plate at a density of 2.5×10^4/well. Each well was then treated by addition of Eeyarestatin I (5 μM), M1 virus (MOI=0.001) or Eeyarestatin I (5 μM) plus M1 virus (MOI=0.001) or left untreated as a control.

[3] = test system: endoplasmic reticulum stress markers (IRE1, XBP1(S), BiP, p-PERK, p-eIF2a, ATF6, poly-ub; caspase-12, CHOP, p-JNK); assay: Western blot of endoplasmic reticulum stress markers and ER stress-associated apoptosis in Hep3B (Example 5); assay type: cell-based, human; details: Eeyarestatin I 5 μM and/or M1 virus MOI=0.001
Description: The cells in the exponential growth phase were selected and added into a DMEM complete culture medium to prepare a cell suspension. The cells were inoculated into a 60 mm culture dish at a density of 1×10^6. After 12 hours the cells were completely adherent to the wall. […] The dose was used as follows: M1 virus (MOI=0.001) that infected cells; Eeyarestatin I (5 μM).
After the time of drug treatment was set up, the protein samples were collected to carry out the Western blot for detecting the marker of endoplasmic reticulum stress (IRE1 XBP1(S), BiP, p-PERK, p-eIF2a, ATF6, poly-ub); and the activation of the pathway of endoplasmic reticulum stress-associated apoptosis (caspase-12, CHOP, p-JNK).

SMILES	relative survival rates ([1]; CB-5083 alone compared to combination with M1 (MOI=0.001), 0.124 to 2 μM, FIG. 2(B))	morphology of the cells [2]	reduction in cell number ([1]; 5 μM alone) [%]	survival rate of tumor cells ([1]; 5 μM alone, 48 hours, MTT)	endoplasmic reticulum stress-associated markers and apoptosis pathway [3]
Cc1cc2c(C(N)=O)cccc2n1-c1nc2c(c(NCc3ccccc3)n1)COCC2 [CB-5083]	significantly higher relative survival rates				
CC1(C)C(N(O)C(=O)Nc2ccc(Cl)cc2)N(c2ccc(Cl)cc2)C(=O)N1CC(=O)N/N=C/C=C/c1ccc([N+](=O)[O-])o1 (centres unmarked) [Eeyarestatin I]		morphology of the cells was not changed significantly	12.8	87.2% and 78.2%	induce the increase of endoplasmic reticulum stress-associated markers such as IREI, XBPI (S), p-PERK, p-eIF2a

— patent US11234968B2, “Use of VCP inhibitor and oncolytic virus in the preparation of an anti-tumor drug” (priority 2016, dated 2022)
